Tests used:
[1] = molecular target: T1, wild type Bcr-abl (Ba/F3 cells) (Homo sapiens, UniProt P00519); test: Proliferation of Ba/F3 cells expressing wild type Bcr-abl; format: cell-based
T1 construct: expressed in transfected cells; host or cells: Ba/F3 (murine pro-B cells); the other entry of the earlier key: BCR (P11274, Breakpoint cluster region protein)
Description: 32D-p210 cells are plated into 96 well TC plates at a density of 15,000 cells per well. 50 μL of two fold serial dilutions of the test compound (Cmax is 40 μM) are added to each well (STI571 is included as a positive control). After incubating the cells for 48 hours at 37° C., 5% CO2, 15 μL of MTT (Promega) is added to each well and the cells are incubated for an additional 5 hours. The optical density at 570 nm is quantified spectrophotometrically and IC50 values, the concentration of compound required for 50% inhibition, determined from a dose response curve.
Compounds of the invention are tested for their antiproliferative effect on Ba/F3 cells expressing either wild type or the mutant forms of BCR-Abl (G250E, E255V, T315I, F317L, M351T) that confers resistance or diminished sensitivity to STI571. The antiproliferative effect of these compounds on the mutant-BCR-Abl expressing cells and on the non transformed cells were tested at 10, 3.3, 1.1 and 0.37 μM as described above (in media lacking IL3). The IC50 values of the compounds lacking toxicity on the untransformed cells were determined from the dose response curves obtained as describe above.

FLT-3 = FLT-3 (Homo sapiens, UniProt P36888, cells depend on it, form not given); test: FLT3 (Cellular Assay), Ba/F3-FLT3-ITD proliferation; format: cell-based; settings: read-out: IC50 for FLT-3
PAK2(h) = molecular target: T2, PAK2(h) (Homo sapiens, UniProt Q13177); test: Upstate KinaseProfiler radio-enzymatic filter binding assay; format: biochemical; settings: read-out: percentage inhibition PAK2(h)
T2 construct: purchased Upstate
Description: (§1) Compounds of the invention are assessed for their ability to inhibit individual members of the kinase panel. The compounds are tested in duplicates at a final concentration of 10 μM following this generic protocol. Note that the kinase buffer composition and the substrates vary for the different kinases included in the “Upstate KinaseProfiler™” panel. Kinase buffer (2.5 μL, 10×—containing MnCl2 when required), active kinase (0.001-0.01 Units; 2.5 μL), specific or Poly(Glu4-Tyr) peptide (5-500 μM or 0.01 mg/ml) in kinase buffer and kinase buffer (50 μM; 5 μL) are mixed in an eppendorf on ice. A Mg/ATP mix (10 μL; 67.5 (or 33.75) mM MgCl2, 450 (or 225) μM ATP and 1 μCi/μl [γ-^32P]-ATP (3000 Ci/mmol)) is added and the reaction is incubated at about 30° C. for about 10 minutes. The reaction mixture is spotted (20 μL) onto a 2 cm×2 cm P81 (phosphocellulose, for positively charged peptide substrates) or Whatman No. 1 (for Poly (Glu4-Tyr) peptide substrate) paper square. The assay squares are washed 4 times, for 5 minutes each, with 0.75% phosphoric acid and washed once with acetone for 5 minutes. The assay squares are transferred to a scintillation vial, 5 ml scintillation cocktail are added and ^32P incorporation (cpm) to the peptide substrate is quantified with a Beckman scintillation counter. Percentage inhibition is calculated for each reaction.

p70S6K(h) = molecular target: T3, p70S6K(h) (Homo sapiens, UniProt P23443); test: as above; format: biochemical; settings: read-out: percentage inhibition p70S6K(h)
T3 construct: purchased Upstate
Description: as §1

Bmx(h) = molecular target: T4, Bmx(h) (Homo sapiens, UniProt P51813); test: as above; format: biochemical; settings: read-out: percentage inhibition Bmx(h)
T4 construct: purchased Upstate
Description: as §1

Ros(h) = molecular target: T5, Ros(h) (Homo sapiens, UniProt P08922); test: as above; format: biochemical; settings: read-out: percentage inhibition Ros(h)
T5 construct: purchased Upstate
Description: as §1

PKD2(h) = molecular target: T6, PKD2(h) (Homo sapiens, UniProt Q9BZL6); test: as above; format: biochemical; settings: read-out: percentage inhibition PKD2(h)
T6 construct: purchased Upstate
Description: as §1

Abl(m) = molecular target: T7, Abl(m) (Mus musculus, UniProt P00520); test: as above; format: biochemical; settings: read-out: percentage inhibition Abl(m)
T7 construct: purchased Upstate
Description: as §1

Abl(T315L) = molecular target: T8, Abl(T315L) (Homo sapiens, UniProt P00519, T315I); test: as above; format: biochemical; settings: read-out: percentage inhibition Abl(T315L)
T8 construct: purchased Upstate
Description: as §1

FGFR3(h) = molecular target: T9, FGFR3(h) (Homo sapiens, UniProt P22607); test: as above; format: biochemical; settings: read-out: percentage inhibition FGFR3(h)
T9 construct: purchased Upstate
Description: as §1

cSRC(h) = molecular target: T10, cSRC(h) (Homo sapiens, UniProt P12931); test: as above; format: biochemical; settings: read-out: percentage inhibition cSRC(h)
T10 construct: purchased Upstate
Description: as §1

JNK2α2(h) = molecular target: T11, JNK2α2(h) (Homo sapiens, UniProt P45984); test: as above; format: biochemical; settings: read-out: percentage inhibition JNK2α2(h)
T11 construct: purchased Upstate
Description: as §1

SGK(h) = molecular target: T12, SGK(h) (Homo sapiens, UniProt O00141); test: as above; format: biochemical; settings: read-out: percentage inhibition SGK(h)
T12 construct: purchased Upstate
Description: as §1

Syk(h) = molecular target: T13, Syk(h) (Homo sapiens, UniProt P43405); test: as above; format: biochemical; settings: read-out: percentage inhibition Syk(h)
T13 construct: purchased Upstate
Description: as §1

Fes(h) = molecular target: T14, Fes(h) (Homo sapiens, UniProt P07332); test: as above; format: biochemical; settings: read-out: percentage inhibition Fes(h)
T14 construct: purchased Upstate
Description: as §1

JNK1α1(h) = molecular target: T15, JNK1α1(h) (Homo sapiens, UniProt P45983); test: as above; format: biochemical; settings: read-out: percentage inhibition JNK1α1(h)
T15 construct: purchased Upstate
Description: as §1

SAPK2a(h) = molecular target: T16, SAPK2a(h) (Homo sapiens, UniProt Q16539); test: as above; format: biochemical; settings: read-out: percentage inhibition SAPK2a(h)
T16 construct: purchased Upstate
Description: as §1

T10 sequence (P12931 whole entry): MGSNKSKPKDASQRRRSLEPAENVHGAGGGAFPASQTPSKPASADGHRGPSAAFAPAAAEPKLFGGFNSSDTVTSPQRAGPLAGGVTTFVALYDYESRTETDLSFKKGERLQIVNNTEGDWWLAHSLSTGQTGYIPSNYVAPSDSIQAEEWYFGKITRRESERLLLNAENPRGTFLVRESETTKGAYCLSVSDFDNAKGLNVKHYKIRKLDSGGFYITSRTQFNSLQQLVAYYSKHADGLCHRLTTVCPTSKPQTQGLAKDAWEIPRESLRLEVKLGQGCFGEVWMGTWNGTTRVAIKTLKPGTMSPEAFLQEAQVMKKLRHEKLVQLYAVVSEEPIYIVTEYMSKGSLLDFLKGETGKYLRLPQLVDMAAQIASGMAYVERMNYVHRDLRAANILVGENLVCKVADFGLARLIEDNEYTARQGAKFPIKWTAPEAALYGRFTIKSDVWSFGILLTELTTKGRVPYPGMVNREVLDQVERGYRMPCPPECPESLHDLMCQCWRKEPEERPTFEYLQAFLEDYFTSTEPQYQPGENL
T5 sequence (P08922 28-2347): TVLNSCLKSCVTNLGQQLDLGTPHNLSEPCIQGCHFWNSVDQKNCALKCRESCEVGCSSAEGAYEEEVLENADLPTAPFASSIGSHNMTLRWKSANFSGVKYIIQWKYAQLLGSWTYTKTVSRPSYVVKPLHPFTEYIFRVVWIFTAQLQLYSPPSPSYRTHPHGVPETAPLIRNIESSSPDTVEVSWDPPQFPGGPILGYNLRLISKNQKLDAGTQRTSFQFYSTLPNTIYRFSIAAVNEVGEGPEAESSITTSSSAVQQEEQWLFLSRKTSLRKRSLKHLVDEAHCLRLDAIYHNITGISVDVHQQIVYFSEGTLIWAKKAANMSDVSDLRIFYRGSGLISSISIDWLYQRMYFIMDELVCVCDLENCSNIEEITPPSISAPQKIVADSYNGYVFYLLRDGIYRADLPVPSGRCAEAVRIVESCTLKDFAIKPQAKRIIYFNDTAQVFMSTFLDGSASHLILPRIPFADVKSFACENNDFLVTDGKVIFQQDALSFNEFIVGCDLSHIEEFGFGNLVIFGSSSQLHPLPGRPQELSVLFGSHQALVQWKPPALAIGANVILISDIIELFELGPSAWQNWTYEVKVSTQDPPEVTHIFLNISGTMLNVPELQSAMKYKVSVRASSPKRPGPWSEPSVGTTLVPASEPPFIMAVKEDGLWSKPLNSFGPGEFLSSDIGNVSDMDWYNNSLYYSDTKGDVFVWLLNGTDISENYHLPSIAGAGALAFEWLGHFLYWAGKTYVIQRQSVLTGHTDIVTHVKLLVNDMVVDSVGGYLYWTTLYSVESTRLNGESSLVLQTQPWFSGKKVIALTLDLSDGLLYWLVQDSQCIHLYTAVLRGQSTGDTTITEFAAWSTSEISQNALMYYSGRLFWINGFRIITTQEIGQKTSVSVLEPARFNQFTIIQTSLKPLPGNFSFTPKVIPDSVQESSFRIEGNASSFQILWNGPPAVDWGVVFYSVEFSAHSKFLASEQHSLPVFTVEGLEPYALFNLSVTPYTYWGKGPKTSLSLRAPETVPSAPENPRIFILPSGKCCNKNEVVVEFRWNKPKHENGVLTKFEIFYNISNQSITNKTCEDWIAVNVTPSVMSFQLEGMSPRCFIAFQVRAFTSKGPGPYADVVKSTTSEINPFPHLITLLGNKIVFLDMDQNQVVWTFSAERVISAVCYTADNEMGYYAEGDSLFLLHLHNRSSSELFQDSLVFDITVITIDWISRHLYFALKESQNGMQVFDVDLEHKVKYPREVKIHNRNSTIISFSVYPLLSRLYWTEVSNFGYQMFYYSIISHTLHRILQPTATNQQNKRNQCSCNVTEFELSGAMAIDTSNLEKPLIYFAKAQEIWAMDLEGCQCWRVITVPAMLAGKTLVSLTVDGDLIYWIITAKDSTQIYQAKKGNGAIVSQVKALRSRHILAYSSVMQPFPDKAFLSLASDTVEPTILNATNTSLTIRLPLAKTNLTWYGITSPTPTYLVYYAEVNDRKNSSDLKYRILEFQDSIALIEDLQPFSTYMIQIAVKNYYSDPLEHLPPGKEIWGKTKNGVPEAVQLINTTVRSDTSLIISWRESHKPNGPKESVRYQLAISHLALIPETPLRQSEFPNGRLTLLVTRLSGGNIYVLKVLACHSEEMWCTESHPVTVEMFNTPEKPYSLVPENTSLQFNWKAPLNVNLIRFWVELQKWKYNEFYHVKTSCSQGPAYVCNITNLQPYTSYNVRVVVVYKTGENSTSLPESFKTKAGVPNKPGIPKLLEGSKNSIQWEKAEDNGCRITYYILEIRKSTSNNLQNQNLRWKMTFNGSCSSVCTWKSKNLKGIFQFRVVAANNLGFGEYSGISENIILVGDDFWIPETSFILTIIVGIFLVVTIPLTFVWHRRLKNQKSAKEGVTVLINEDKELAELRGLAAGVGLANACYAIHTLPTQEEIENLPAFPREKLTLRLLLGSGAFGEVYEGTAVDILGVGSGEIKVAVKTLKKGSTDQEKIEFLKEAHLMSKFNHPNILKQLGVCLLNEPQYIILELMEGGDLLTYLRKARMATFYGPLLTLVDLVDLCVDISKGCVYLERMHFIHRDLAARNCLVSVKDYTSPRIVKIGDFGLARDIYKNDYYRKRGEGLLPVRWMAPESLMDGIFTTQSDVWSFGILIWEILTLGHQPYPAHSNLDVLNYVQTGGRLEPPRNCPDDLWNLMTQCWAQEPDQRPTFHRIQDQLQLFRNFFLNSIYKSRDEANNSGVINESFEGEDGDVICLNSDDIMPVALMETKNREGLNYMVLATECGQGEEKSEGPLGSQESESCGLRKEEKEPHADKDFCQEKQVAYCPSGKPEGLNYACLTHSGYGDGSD
T14 sequence (P07332 whole entry): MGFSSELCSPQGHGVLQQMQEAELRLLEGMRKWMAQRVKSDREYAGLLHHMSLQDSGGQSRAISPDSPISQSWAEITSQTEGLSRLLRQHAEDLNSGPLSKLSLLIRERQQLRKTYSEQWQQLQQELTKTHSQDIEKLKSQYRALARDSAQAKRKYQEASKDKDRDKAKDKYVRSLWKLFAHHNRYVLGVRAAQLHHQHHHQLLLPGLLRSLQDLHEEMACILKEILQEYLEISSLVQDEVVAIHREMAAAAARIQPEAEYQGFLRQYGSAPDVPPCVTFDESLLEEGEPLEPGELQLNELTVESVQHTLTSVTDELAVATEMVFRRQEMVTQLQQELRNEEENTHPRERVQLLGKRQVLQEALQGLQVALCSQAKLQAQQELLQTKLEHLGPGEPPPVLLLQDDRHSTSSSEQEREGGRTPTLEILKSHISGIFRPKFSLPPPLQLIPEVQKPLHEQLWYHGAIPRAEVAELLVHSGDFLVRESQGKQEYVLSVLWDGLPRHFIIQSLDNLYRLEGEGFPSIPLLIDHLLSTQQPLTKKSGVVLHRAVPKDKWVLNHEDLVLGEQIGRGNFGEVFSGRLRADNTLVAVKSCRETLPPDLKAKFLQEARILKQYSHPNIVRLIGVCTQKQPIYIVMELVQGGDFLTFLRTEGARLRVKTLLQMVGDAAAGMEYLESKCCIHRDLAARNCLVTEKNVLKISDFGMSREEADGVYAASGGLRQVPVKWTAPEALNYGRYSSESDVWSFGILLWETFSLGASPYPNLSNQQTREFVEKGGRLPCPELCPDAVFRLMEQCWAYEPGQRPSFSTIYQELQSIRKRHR
T6 sequence (Q9BZL6 whole entry): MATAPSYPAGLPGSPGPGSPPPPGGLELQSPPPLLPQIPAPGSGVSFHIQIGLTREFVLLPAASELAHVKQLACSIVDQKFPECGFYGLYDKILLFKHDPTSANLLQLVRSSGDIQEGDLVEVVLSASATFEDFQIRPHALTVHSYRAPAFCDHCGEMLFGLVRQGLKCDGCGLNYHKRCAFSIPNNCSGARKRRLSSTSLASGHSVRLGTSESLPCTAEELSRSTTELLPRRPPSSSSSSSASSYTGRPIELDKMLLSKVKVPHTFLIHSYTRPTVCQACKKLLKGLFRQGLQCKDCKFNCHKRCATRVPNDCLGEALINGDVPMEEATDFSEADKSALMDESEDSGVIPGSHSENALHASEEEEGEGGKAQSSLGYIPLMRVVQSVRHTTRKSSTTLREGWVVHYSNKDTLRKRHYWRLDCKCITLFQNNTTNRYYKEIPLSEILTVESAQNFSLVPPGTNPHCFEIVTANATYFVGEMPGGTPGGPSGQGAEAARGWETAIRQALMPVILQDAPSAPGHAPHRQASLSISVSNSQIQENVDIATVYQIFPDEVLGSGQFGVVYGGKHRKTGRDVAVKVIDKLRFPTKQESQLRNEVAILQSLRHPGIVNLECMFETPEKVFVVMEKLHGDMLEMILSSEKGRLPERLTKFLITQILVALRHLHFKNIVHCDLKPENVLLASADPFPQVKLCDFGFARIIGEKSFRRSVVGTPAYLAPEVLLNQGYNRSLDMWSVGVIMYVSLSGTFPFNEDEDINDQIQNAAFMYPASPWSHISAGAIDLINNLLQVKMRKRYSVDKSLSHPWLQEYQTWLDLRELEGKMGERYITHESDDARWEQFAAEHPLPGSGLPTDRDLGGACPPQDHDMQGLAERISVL
T16 sequence (Q16539 whole entry): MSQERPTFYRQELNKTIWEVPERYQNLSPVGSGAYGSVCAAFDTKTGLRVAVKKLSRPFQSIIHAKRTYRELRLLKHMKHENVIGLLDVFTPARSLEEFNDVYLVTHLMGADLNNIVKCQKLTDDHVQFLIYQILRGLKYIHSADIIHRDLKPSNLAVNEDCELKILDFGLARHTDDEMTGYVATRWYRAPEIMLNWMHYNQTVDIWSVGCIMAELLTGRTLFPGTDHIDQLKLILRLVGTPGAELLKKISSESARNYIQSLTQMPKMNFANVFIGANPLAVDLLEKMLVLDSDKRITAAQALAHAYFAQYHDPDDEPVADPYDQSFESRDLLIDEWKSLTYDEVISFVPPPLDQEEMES

**Q.** For `CCN1CCN(Cc2ccc(NC(=O)c3ccc(C)c(NC(=O)N(C)c4ncnc5[nH]ccc45)c3)cc2C(F)(F)F)CC1` [Example 4, N-[4-(4-Ethyl-piperazin-1-ylmethyl)-3-trifluoromethyl-phenyl]-4-methyl-3-[3-methyl-3-(7H-pyrrolo[2,3-d]pyrimidin-4-yl)-ureido]-benzamide], which IC50 [1] is on record?
**A.** Its IC50 is under 5 nM.

**Q.** And the GI50 (FLT-3)?
**A.** The GI50 was 15 nM.

**Q.** And the inhibition at 10 µM (PAK2(h))?
**A.** Its inhibition at 10 µM is 62%.

**Q.** And the inhibition at 10 µM (p70S6K(h))?
**A.** The inhibition at 10 µM was 94%.

**Q.** What about the inhibition at 10 µM (Bmx(h)) of the same molecule?
**A.** The inhibition at 10 µM was 100%.

**Q.** And the inhibition at 10 µM (Ros(h))?
**A.** The inhibition at 10 µM was 62%.

**Q.** What about the inhibition at 10 µM (PKD2(h)) of the same molecule?
**A.** The inhibition at 10 µM was 94%.

**Q.** What about the inhibition at 10 µM (Abl(m)) of the same molecule?
**A.** Its inhibition at 10 µM is 98%.

**Q.** What about the inhibition at 10 µM (Abl(T315L)) of the same molecule?
**A.** Its inhibition at 10 µM is 98%.

**Q.** What about the inhibition at 10 µM (FGFR3(h)) of the same molecule?
**A.** Its inhibition at 10 µM is 98%.

**Q.** What about the inhibition at 10 µM (cSRC(h)) of the same molecule?
**A.** Its inhibition at 10 µM is 99%.

**Q.** And the inhibition at 10 µM (JNK2α2(h))?
**A.** The inhibition at 10 µM was 99%.

**Q.** And the inhibition at 10 µM (SGK(h))?
**A.** The inhibition at 10 µM was 81%.

**Q.** And the inhibition at 10 µM (Syk(h))?
**A.** Its inhibition at 10 µM is 63%.

**Q.** What about the inhibition at 10 µM (Fes(h)) of the same molecule?
**A.** The inhibition at 10 µM was 97%.

**Q.** What about the inhibition at 10 µM (JNK1α1(h)) of the same molecule?
**A.** The inhibition at 10 µM was 81%.

**Q.** And the inhibition at 10 µM (SAPK2a(h))?
**A.** The inhibition at 10 µM was 92%.

Source: US8183248B2, “Substituted pyrrolo[2,3-d]pyrimidines and compositions as protein kinase inhibitors” (IRM LLC, priority 2005, dated 2012)
